From US20250122217A1, “ANHYDROUS CRYSTALLINE FORMS OF 2-((4S)-6-(4-CHLOROPHENYL)-1-METHYL-4H-BENZO[C]ISOXAZOLO[4,5-E]AZEPIN-4-YL)ACETAMIDE” (CONSTELLATION PHARMACEUTICALS. INC., priority 2022, published 2025)

Tests used:
in vivo = experiment: in vivo; parameters: species or system beagle dogs; settings: male, beagle, dog, po, 5 mg/kg
Experimental: Single dose PK parameters in plasma were determined following oral gavage administration of micronized anhydrous Form B at 5 mg/kg to male beagle dogs (n=6/Group) in 0.5% (w/v) aqueous Methocel (4000 cps). The dose volume of PO groups was 2 mL/kg. For intravenous (0.5 mg/kg) and oral gavage (5 mg/kg), plasma samples were collected at the following time points: 0, 0.25, 0.5, 1, 2, 4, 6, 8, 12, 24 h post dose and analyzed. […] (5 mg/kg, 2.5 mg/mL, suspension).

[1] = Competitive slurry experiments of crystalline forms, XRD readout; format: physicochemical; settings: for water activities at which the form is thermodynamically stable: conclusion from the competitive slurries of Table 3; for XRD result of competitive slurry: about 5-7 days
Experimental: The following competitive slurry experiments were performed using inventive anhydrous Form B and monohydrate Form A disclosed in U.S. Pat. No. 9,969,747.
Aqueous mixtures were created and tested in duplicate for water activity at ambient temperature. Amorphous Pelabresib was used to create a saturated solution in the respective solvent. The supernatant was added to solids of monohydrate Form A and anhydrous Form B and allowed to stir at the respective temperature for about 5-7 days. In all samples except for the butanol:water mixture, a small quantity of Form C was also added to the competitive slurry. Form C can be prepared by slurring amorphous pelabresib in water:ethanol (90:10) for about 5 days The results of the competitive slurries are shown below in Table 3.

[2] = Dynamic vapor sorption (DVS); format: physicochemical

Row | SMILES | AUC(0-t) (in vivo) [µg·h/mL] | Cmax (in vivo) [µg/mL] | Tmax (in vivo) [h] | water activities at which the form is thermodynamically stable [1] [%] | hygroscopicity by DVS ([2]; DVS profile, FIG. 3) | weight gain (DVS) ([2]; at 95% RH) | XRD result of competitive slurry ([1]; Form A + Form B (no Form C), 2-butanol:water (95:5), water activity 0.72, 40° C.) | XRD result of competitive slurry ([1]; Form A + Form B (no Form C), 2-butanol:water (95:5), water activity 0.72, RT) | XRD result of competitive slurry ([1]; Form A + Form B + small quantity of Form C, EtOH:water (90:10), water activity 0.54, 40° C.) | XRD result of competitive slurry ([1]; Form A + Form B + small quantity of Form C, EtOH:water (90:10), water activity 0.54, RT) | XRD result of competitive slurry ([1]; Form A + Form B + small quantity of Form C, IPA:water (98:2), water activity 0.27, 40° C.) | XRD result of competitive slurry ([1]; Form A + Form B + small quantity of Form C, IPA:water (98:2), water activity 0.27, RT) | XRD result of competitive slurry ([1]; Form A + Form B + small quantity of Form C, THF:water (10:90), water activity 0.97, 40° C.) | XRD result of competitive slurry ([1]; Form A + Form B + small quantity of Form C, THF:water (10:90), water activity 0.97, RT)
1 | Cc1noc2c1-c1ccccc1C(c1ccc(Cl)cc1)=N[C@H]2CC(N)=O (single isomer, unassigned) [Form B] | 12.1 ± 1.45 | 1.75 ± 0.225 | 1.17 ± 0.41 | ≤ 72 | non-hygroscopic | about 0.5% |  |  |  |  |  |  |  | 
2 | Cc1noc2c1-c1ccccc1C(c1ccc(Cl)cc1)=N[C@H]2CC(N)=O (single isomer, unassigned) [Form A, reference compound] |  |  |  | ≥ 97 |  |  |  |  |  |  |  |  |  | 
3 | Cc1noc2c1-c1ccccc1C(c1ccc(Cl)cc1)=N[C@H]2CC(N)=O [Pelabresib, 2-((4S)-6-(4-chlorophenyl)-1-methyl-4H-benzo[c]isoxazolo[4,5-e]azepin-4-yl)acetamide] |  |  |  |  |  |  | Form B | Form B | Form B | Form B | Form B + small peak | Form B | Form A | Form C
